Patent US8940756B2, “Dihydronaphthyridines and related compounds useful as kinase inhibitors for the treatment of proliferative diseases” (Deciphera Pharmaceuticals, Inc., priority 2012, dated 2015)

Key:
[1] = target: Phospho-KIT (Tyr719) in GIST48 cells (Homo sapiens, UniProt P10721); experiment: GIST48 KIT Western Blot; format: cell-based; conditions: 4 hours, read-out: pKIT suppression by western blot analysi GIST48
[2] = target: Phospho-KIT (Tyr719) in GIST430 cells (Homo sapiens, UniProt P10721); experiment: GIST430 KIT Western Blot; format: cell-based; conditions: 4 hours, read-out: pKIT suppression by western blot analysi GIST430
GIST430 cells = experiment: GIST 430 Cell Proliferation Assay; format: cell-based; conditions: Homo sapiens, resazurin, 115 hours + 5 hours
Description: GIST48, GIST430, and GIST882 cells were obtained from J. Fletcher (Brigham and Women's Hospital, Boston, Mass.). GIST T1 cells were obtained from B. Rubin (Cleveland Clinic, Cleveland, Ohio) and Professor Takahiro Taguchi (Kochi Medical School, Nankoku, Kochi, Japan). Briefly, GIST48 and GIST 882 cells were grown in RPMI 1640 medium supplemented with 15% characterized fetal bovine serum (Invitrogen, Carlsbad, Calif.), 1 unit/mL penicillin G, 1 μg/ml streptomycin, and 0.29 mg/mL L-glutamine at 37° C., 5% CO2, and 95% humidity. GIST430 cells were grown in Ham's F10 medium supplemented with 15% characterized fetal bovine serum (Invitrogen, Carlsbad, Calif.), 30 mg/L bovine pituitary extract (BD Biosciences, San Jose, Calif.), 0.5% Mito+ serum extender (BD Biosciences, San Jose, Calif.), 1 unit/mL penicillin G, 1 μg/ml streptomycin, and 0.29 mg/mL L-glutamine at 37° C., 5% CO2, 95% humidity. GIST T1 cells were grown in DMEM medium supplemented with 10% characterized fetal bovine serum (Invitrogen, Carlsbad, Calif.), 1 unit/mL penicillin G, 1 ng/ml streptomycin, and 0.29 mg/mL L-glutamine at 37° C., 5% CO2, and 95% humidity.
A serial dilution of test compound was dispensed into a 384-well black clear bottom plate (Corning, Corning, N.Y.). Two thousand five-hundred cells were added per well in 50 μL complete growth medium. Plates were incubated for 115 hours at 37° C., 5% CO2, 95% humidity. At the end of the incubation period 10 μL of a 440 μM solution of resazurin (Sigma, St. Louis, Mo.) in PBS was added to each well and incubated for an additional 5 hours at 37° C., 5% CO2, 95% humidity. Plates were read on a Synergy2 reader (Biotek, Winooski, Vt.) using an excitation of 540 nm and an emission of 600 nm.

[3] = target: T1, c-KIT D816V kinase (Seq ID no. 4) (Homo sapiens, UniProt P10721, D816V); experiment: c-KIT D816V kinase Assay; format: biochemical; conditions: enzymatic assay, ATP 200 uM
T1 construct: D816V c-KIT (residues T544-V976 with N-terminal GST fusion, 16 nM); purchased deCODE Biostructures
Description: (§1) In this assay, the oxidation of NADH (measured by decrease in absorbance at 340 nm) was continuously monitored spectrophotometrically. […] The inhibition reaction was started by mixing serial diluted test compound with the above reaction mixture. The absorption at 340 nm was monitored continuously for 5 hours at 30° C. on Synergy 2 plate reader (BioTech).
The protein construct was prepared by deCODE Biostructures using procedures known in the art. The construct contains residues T544-V976 of cKit, an N-terminal tag, a GST-fusion sequence and a TEV cleavage site. This construct is identical to Seq ID no. 1 except for the D816V mutation.

[4] = target: T2, c-KIT VVDV kinase (V559 and V560 deleted and D816V mutation, Seq ID no. 5) (Homo sapiens, UniProt P10721, D816V/DEL559-560); experiment: cKIT-VVDV Kinase Assay; format: biochemical; conditions: enzymatic assay, ATP 200 uM
T2 construct: This construct contains residues T544-V976 of cKit (except for the D816V mutation and the deletion of residues V559 and V560); GST (N); TEV cleavage site (N); purchased deCODE Biostructures
Description: In this assay, the oxidation of NADH (measured by decrease in absorbance at 340 nm) was continuously monitored spectrophotometrically. […] The inhibition reaction was started by mixing serial diluted test compound with the above reaction mixture. The absorption at 340 nm was monitored continuously for 5 hours at 30° C. on Synergy 2 plate reader (BioTech). […] The protein construct was prepared by deCODE Biostructures using procedures known in the art. This construct contains […] of cKit (except for the D816V […]), an N-terminal tag, a GST-fusion sequence and a TEV cleavage site. This construct is identical to Seq ID no. 1 except for the D816V […].

[5] = target: T3, c-KIT T670I kinase (Seq ID no. 6) (Homo sapiens, UniProt P10721, T670I); experiment: c-KIT T670I Kinase Assay; format: biochemical; conditions: enzymatic assay, ATP 200 uM
T3 construct: GST (N); TEV cleavage site (N); purchased deCODE Biostructures
Description: (§2) In this assay, the oxidation of NADH (measured by decrease in absorbance at 340 nm) was continuously monitored spectrophotometrically. […] The inhibition reaction was started by mixing serial diluted test compound with the above reaction mixture. The absorption at 340 nm was monitored continuously for 5 hours at 30° C. on Synergy 2 plate reader (BioTech). […] The protein construct was prepared by deCODE Biostructures using procedures known in the art. The construct contains […] of cKit, an N-terminal tag, a GST-fusion sequence and a TEV cleavage site. This construct is identical to Seq ID no.

[6] = target: T4, c-KIT V654A kinase (Seq ID no. 2) (Homo sapiens, UniProt P10721, V654A); experiment: c-KIT V654A Kinase Assay; format: biochemical; conditions: enzymatic assay, ATP 200 μM
T4 construct: V654A c-Kit (residues T544-V976 with N-terminal GST fusion, 47 nM); purchased deCODE Biostructures
Description: as §1, with “6” for “5”
The protein construct was prepared by deCODE Biostructures using procedures known in the art. The construct contains residues T544-V976 of cKit, an N-terminal tag, a GST-fusion sequence and a TEV cleavage site. This construct is identical to Seq ID no.

[7] = target: T5, Phospho-KIT (Tyr719) in GIST882 cells (Homo sapiens, UniProt P10721, K642E); experiment: GIST882 KIT Western Blot; format: cell-based; conditions: 4 hours, read-out: pKIT suppression by western blot analysi GIST 882
T5 construct: endogenous in cells; host or cells: GIST882
Description: GIST48, GIST430, and GIST882 cells were obtained from J. Fletcher (Brigham and Women's Hospital, Boston, Mass.). GIST T1 cells were obtained from B. Rubin (Cleveland Clinic, Cleveland, Ohio) and Professor Takahiro Taguchi (Kochi Medical School, Nankoku, Kochi, Japan). […] GIST430 cells were grown in Ham's F10 medium supplemented with 15% characterized fetal bovine serum (Invitrogen, Carlsbad, Calif.), 30 mg/L bovine pituitary extract (BD Biosciences, San Jose, Calif.), 0.5% Mito+ serum extender (BD Biosciences, San Jose, Calif.), 1 unit/mL penicillin G, 1 μg/ml streptomycin, and 0.29 mg/mL L-glutamine at 37° C., 5% CO2, 95% humidity. GIST T1 cells were grown in DMEM medium supplemented with 10% characterized fetal bovine serum (Invitrogen, Carlsbad, Calif.), 1 unit/mL penicillin G, 1 ng/ml streptomycin, and 0.29 mg/mL L-glutamine at 37° C., 5% CO2, and 95% humidity. Cells were allowed to expand until reaching 70-95% confluence at which point they were subcultured or harvested for assay use.
Two hundred fifty thousand cells were added per well in a 24-well tissue-culture treated plate. Cells were then incubated overnight at 37° C., 5% CO2, 95% humidity. Medium was aspirated, cells were washed with PBS, and serum-free RPMI1640 medium was added. A serial dilution of test compound was added to plates containing cells and plates were incubated for 4 hours at 37° C., 5% CO2, 95% humidity. Cells were washed with PBS, then lysed. Cell lysates were separated by SDS-PAGE and transferred to PVDF. Phospho-KIT (Tyr719) was detected using an antibody from Cell Signaling Technology (Beverly, Mass.), ECL Plus detection reagent (GE Healthcare, Piscataway, N.J.) and a Molecular Devices Storm 840 phosphorimager in fluorescence mode. Blots were stripped and probed for total KIT using an antibody from Santa Cruz Biotech (Santa Cruz, Calif.). IC50 values were calculated using Prism software (Graphpad, San Diego, Calif.).

[8] = target: T6, c-KIT kinase (Seq ID no. 1) (Homo sapiens, UniProt P10721); experiment: c-KIT Kinase Assay (pyruvate kinase/lactate dehydrogenase coupled); format: biochemical; conditions: enzymatic assay, ATP 200 μM; read-out: KIT (wt)
T6 construct: GST (N); TEV cleavage site (N); purchased deCODE Biostructures
Description: In this assay, the oxidation of NADH (measured by decrease in absorbance at 340 nm) was continuously monitored spectrophotometrically. […] The absorption at 340 nm was monitored continuously for 2 hours at 30° C. on Synergy 2 (BioTeK). The reaction rate was calculated using the 0 to 1 h time frame. Percent inhibition was obtained by comparison of reaction rate with that of a control (i.e. with no test compound). IC50 values were calculated from a series of percent inhibition values determined at a range of inhibitor concentrations using software routines as implemented in the GraphPad Prism software package. The protein construct was prepared by deCODE Biostructures using procedures known in the art. The construct contains […] of cKit, an N-terminal tag, a GST-fusion sequence and a TEV cleavage site.

[9] = target: T7, c-KIT D816H kinase (Seq ID no. 3) (Homo sapiens, UniProt P10721, D816H); experiment: c-KIT D816H Kinase Assay; format: biochemical; conditions: enzymatic assay, ATP 200 μM
T7 construct: GST (N); TEV cleavage site (N); purchased deCODE Biostructures
Description: as §2, with “6” for “5”, “no. 1 except for the D816H mutation.” for “no.”

T4 sequence (P10721 544-976 V654A): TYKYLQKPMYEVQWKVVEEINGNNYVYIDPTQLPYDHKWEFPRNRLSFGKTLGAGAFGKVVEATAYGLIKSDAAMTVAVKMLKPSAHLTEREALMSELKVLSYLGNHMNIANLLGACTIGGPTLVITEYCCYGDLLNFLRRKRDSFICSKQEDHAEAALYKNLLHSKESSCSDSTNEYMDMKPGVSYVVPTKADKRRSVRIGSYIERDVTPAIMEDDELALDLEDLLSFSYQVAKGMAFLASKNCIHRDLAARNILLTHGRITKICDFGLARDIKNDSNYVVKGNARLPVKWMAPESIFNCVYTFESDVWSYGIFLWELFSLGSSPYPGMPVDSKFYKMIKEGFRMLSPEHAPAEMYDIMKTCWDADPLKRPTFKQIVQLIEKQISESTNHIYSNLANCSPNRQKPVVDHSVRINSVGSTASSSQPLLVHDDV
T6 sequence (P10721 with tags, fused parts or gaps): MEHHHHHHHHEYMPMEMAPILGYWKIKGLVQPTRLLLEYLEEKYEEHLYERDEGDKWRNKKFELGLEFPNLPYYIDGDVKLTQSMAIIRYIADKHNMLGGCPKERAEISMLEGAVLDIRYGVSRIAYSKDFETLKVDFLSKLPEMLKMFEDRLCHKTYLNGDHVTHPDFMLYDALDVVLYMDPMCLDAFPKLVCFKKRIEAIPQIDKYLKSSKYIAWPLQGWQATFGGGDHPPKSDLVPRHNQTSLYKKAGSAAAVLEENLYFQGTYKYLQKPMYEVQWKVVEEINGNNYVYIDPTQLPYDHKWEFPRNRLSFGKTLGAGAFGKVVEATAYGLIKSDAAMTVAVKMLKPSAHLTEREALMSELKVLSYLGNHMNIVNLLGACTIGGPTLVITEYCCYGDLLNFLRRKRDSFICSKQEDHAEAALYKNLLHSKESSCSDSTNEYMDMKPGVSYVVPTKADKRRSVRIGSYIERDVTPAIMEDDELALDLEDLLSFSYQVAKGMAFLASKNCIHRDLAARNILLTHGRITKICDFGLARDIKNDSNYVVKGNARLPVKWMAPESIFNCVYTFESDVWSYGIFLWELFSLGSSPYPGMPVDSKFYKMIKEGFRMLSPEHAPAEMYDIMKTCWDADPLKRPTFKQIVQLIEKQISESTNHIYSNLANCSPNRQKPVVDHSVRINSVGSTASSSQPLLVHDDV
T1 sequence (P10721 544-976 D816V): as the sequence (P10721 544-976 V654A) above, with A111V, D273V counted along it
T3 sequence (P10721 544-976 T670I): as the sequence (P10721 544-976 V654A) above, with A111V, T127I counted along it
T7 sequence (P10721 544-976 D816H): as the sequence (P10721 544-976 V654A) above, with A111V, D273H counted along it
Phospho-KIT (Tyr719) in GIST48 cells, sequence (P10721 whole entry V560D/D820A, form open): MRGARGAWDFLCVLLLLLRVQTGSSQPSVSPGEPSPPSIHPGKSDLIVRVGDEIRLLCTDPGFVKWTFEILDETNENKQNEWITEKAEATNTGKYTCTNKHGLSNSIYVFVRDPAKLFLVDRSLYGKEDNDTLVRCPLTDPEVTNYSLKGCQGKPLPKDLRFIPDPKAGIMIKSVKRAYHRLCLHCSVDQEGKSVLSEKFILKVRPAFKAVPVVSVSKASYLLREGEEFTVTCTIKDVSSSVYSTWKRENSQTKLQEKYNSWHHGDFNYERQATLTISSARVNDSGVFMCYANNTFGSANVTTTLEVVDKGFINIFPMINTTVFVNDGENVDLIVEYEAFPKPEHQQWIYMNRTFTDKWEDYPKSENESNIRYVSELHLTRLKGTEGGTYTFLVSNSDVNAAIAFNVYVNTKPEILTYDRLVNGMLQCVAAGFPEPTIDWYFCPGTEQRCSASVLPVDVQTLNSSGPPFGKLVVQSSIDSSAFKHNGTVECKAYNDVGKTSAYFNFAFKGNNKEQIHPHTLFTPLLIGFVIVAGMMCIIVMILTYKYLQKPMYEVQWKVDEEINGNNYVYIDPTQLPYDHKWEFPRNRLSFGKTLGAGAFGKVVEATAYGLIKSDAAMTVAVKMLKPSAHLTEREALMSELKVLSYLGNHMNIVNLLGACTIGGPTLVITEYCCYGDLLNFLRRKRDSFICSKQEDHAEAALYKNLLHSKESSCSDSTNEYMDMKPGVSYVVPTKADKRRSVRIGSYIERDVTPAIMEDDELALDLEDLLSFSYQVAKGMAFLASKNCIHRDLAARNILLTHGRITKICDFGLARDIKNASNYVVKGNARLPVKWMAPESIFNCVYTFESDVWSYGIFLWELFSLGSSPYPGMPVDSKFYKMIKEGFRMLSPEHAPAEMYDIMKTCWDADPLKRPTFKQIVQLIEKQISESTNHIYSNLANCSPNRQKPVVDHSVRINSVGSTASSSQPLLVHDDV
Phospho-KIT (Tyr719) in GIST430 cells, sequence (P10721 with tags, fused parts or gaps DEL560-576/V654A, form open): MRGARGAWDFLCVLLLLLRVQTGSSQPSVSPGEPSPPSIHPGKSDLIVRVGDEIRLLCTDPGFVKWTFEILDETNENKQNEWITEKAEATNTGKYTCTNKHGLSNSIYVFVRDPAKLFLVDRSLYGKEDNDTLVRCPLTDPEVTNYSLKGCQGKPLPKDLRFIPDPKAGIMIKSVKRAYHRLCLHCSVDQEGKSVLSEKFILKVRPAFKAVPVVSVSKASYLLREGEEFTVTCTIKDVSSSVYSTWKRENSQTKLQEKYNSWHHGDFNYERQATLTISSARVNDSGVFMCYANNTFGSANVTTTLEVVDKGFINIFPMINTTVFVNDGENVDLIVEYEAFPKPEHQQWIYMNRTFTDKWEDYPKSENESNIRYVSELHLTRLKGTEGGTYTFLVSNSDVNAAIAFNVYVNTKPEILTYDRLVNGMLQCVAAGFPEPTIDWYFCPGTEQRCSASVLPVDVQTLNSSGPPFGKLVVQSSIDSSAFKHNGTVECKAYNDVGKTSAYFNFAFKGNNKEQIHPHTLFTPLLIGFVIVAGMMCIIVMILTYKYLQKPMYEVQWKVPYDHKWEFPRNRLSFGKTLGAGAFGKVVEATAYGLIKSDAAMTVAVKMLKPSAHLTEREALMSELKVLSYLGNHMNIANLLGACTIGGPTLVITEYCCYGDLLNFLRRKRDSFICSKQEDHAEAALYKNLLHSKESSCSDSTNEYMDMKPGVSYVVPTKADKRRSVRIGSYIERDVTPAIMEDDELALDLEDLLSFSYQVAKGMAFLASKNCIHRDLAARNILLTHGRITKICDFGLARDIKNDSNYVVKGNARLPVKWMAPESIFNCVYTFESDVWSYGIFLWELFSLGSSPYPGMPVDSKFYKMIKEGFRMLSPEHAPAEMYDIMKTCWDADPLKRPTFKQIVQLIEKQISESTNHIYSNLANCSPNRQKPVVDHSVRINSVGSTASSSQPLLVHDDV
T2 sequence (P10721 with tags, fused parts or gaps DEL559-560/D816V): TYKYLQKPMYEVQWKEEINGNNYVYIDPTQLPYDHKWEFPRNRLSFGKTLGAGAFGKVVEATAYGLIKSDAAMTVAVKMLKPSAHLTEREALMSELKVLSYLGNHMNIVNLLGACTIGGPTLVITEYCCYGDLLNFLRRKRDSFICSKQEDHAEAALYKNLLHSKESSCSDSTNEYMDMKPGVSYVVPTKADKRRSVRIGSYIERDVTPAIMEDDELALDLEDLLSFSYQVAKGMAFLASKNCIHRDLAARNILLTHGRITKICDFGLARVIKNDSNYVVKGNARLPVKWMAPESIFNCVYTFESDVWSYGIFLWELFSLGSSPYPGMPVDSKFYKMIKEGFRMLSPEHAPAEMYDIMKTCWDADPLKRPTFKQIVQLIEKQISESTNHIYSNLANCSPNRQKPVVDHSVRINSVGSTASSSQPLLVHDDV
T5 sequence (P10721 26-976 K642E): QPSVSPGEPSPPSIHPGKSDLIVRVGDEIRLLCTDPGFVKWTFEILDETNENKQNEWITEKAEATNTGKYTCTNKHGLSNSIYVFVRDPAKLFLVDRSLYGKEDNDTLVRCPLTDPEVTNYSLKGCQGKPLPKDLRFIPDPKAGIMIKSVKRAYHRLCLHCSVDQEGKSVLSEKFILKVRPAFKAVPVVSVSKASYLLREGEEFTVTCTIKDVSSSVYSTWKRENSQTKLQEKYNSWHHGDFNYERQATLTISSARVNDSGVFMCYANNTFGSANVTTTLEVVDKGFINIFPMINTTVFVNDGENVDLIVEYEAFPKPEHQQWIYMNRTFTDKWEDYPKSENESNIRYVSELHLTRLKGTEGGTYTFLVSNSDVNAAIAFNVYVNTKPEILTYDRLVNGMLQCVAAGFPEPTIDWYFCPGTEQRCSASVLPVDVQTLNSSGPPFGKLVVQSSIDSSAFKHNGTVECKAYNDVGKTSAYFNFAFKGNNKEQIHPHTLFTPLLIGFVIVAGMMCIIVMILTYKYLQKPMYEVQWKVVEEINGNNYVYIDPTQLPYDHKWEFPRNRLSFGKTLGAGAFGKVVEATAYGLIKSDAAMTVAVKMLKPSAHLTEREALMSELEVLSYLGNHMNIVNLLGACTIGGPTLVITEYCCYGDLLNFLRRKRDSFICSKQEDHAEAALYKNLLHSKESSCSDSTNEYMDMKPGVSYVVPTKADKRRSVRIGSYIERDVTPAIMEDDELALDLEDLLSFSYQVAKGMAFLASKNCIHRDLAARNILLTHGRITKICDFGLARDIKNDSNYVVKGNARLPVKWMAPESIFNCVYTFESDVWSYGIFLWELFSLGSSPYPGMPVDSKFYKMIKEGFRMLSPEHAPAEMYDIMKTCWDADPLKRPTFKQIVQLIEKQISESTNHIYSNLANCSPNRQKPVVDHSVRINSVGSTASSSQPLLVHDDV

CCn1c(=O)c(-c2cc(NC(=O)Nc3ccccc3)c(F)cc2Cl)cc2cnc(NC)cc21 [Example 3, 1-(4-chloro-5-(1-ethyl-7-(methylamino)-2-oxo-1,2-dihydro-1,6-naphthyridin-3-yl)-2-fluorophenyl)-3-phenylurea]
IC50 [1]: 100 to 1000 nM
IC50 [2]: 10 to 100 nM
IC50 (GIST430 cells): 10 to 100 nM

CCn1c(=O)c(-c2cc(NC(=O)Nc3cccc(Cl)c3)c(F)cc2F)cc2cnc(NC)cc21 [Example 17, 1-(3-chlorophenyl)-3-(5-(1-ethyl-7-(methylamino)-2-oxo-1,2-dihydro-1,6-naphthyridin-3-yl)-2,4-difluorophenyl)urea]
IC50 [3]: 10 to 100 nM
IC50 [1]: 10 to 100 nM
IC50 [4]: 100 to 1000 nM
IC50 [2]: 10 to 100 nM

CCn1c(=O)c(-c2cc(NC(=O)Nc3ccccc3)c(F)cc2C)cc2cnc(NC)cc21 [Example 23, 1-(5-(1-ethyl-7-(methylamino)-2-oxo-1,2-dihydro-1,6-naphthyridin-3-yl)-2-fluoro-4-methylphenyl)-3-phenylurea]
IC50 [1]: 100 to 1000 nM
IC50 [2]: 10 to 100 nM
IC50 (GIST430 cells): 10 to 100 nM

CCn1c(=O)c(-c2cc(NC(=O)Nc3ccccc3)c(F)cc2Br)cc2cnc(NC(C)=O)cc21 [Example 53, 1-(5-(7-acetamido-1-ethyl-2-oxo-1,2-dihydro-1,6-naphthyridin-3-yl)-4-bromo-2-fluorophenyl)-3-phenylurea]
IC50 [5]: 10 to 100 nM
IC50 [3]: < 10 nM
IC50 [6]: 10 to 100 nM
IC50 [1]: 100 to 1000 nM
IC50 [4]: < 10 nM
IC50 [2]: < 10 nM
IC50 [7]: 10 to 100 nM
IC50 [8]: < 10 nM

CC(=O)Nc1cc2c(cn1)cc(-c1cc(NC(=O)Nc3cccc(F)c3)c(F)cc1Cl)c(=O)n2C(C)C [Example 99, N-(3-(2-chloro-4-fluoro-5-(3-(3-fluorophenyl)ureido)phenyl)-1-isopropyl-2-oxo-1,2-dihydro-1,6-naphthyridin-7-yl)acetamide]
IC50 [5]: 10 to 100 nM
IC50 [3]: < 10 nM
IC50 [6]: 10 to 100 nM
IC50 [9]: 10 to 100 nM
IC50 [8]: < 10 nM

Cc1cc(F)c(NC(=O)Nc2ccccc2)cc1-c1cc2cnc(NC(=O)N3CCC3)cc2n(C(C)C)c1=O [Example 109, N-(3-(4-fluoro-2-methyl-5-(3-phenylureido)phenyl)-1-isopropyl-2-oxo-1,2-dihydro-1,6-naphthyridin-7-yl)azetidine-1-carboxamide]
IC50 [5]: 10 to 100 nM
IC50 [3]: 10 to 100 nM
IC50 [6]: 10 to 100 nM
IC50 [1]: 10 to 100 nM
IC50 [9]: 10 to 100 nM
IC50 [8]: 10 to 100 nM

CCn1c(=O)c(-c2cc(NC(=O)Nc3ccccc3)c(F)cc2C)cc2cnc(Nc3cnn(C)c3)cc21 [Example 115, 1-(5-(1-ethyl-7-((1-methyl-1H-pyrazol-4-yl)amino)-2-oxo-1,2-dihydro-1,6-naphthyridin-3-yl)-2-fluoro-4-methylphenyl)-3-phenylurea]
IC50 [5]: 10 to 100 nM
IC50 [3]: < 10 nM
IC50 [6]: 10 to 100 nM
IC50 [9]: < 10 nM
IC50 [8]: < 10 nM
